According to US10597388B2, “Pyridazinone herbicides” (FMC CORPORATION, priority 2014, dated 2020):

Legend:
Test in all cases: Test D controlled growth environment herbicide test, pre- and postemergence
Format in all cases: in vivo
[1] = system: mustard, wild (wild mustard, Sinapis arvensis)
Outline: (§1)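 Pre-emergence: seeds sown in silt loam soil were sprayed with compound in a non-phytotoxic solvent mix containing surfactant. Post-emergence: plants at 2 to 18 cm (1- to 4-leaf stage) in peat moss/vermiculite medium got the same formulation. Visual 0–100 rating versus controls after 14 to 21 d.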

[2] = system: speedwell (bird's-eye speedwell, Veronica persica)
Outline: as §1

[3] = system: wheat, spring (spring wheat, Triticum aestivum)
Outline: as §1

[4] = system: field poppy (Papaver rhoeas)
Outline: as §1

[5] = system: barley, spring (spring barley, Hordeum vulgare)
Outline: as §1

[6] = system: kochia (Kochia scoparia)
Outline: as §1

[7] = system: bluegrass (annual bluegrass, Poa annua)
Outline: as §1

[8] = system: oat, wild (wild oat, Avena fatua)
Outline: as §1

[9] = system: radish, wild (wild radish, Raphanus raphanistrum)
Outline: as §1

[10] = system: pigweed (Amaranthus retroflexus)
Outline: as §1

[11] = system: blackgrass (Alopecurus myosuroides)
Outline: as §1

[12] = system: Russian thistle (Salsola kali)
Outline: as §1

[13] = system: barley, winter (winter barley, Hordeum vulgare)
Outline: as §1

[14] = Postemergence, 125 g ai/ha, visual rating on scale 0 (no effect) to 100 (complete control), 14 to 21 d
[15] = Postemergence, 250 g ai/ha, scale 0 to 100 (0 no effect, 100 complete control)
[16] = postemergence, 62 g ai/ha, scale 0 to 100, 0 no effect, 100 complete control
[17] = Postemergence, 31 g ai/ha, scale 0 to 100 (0 no effect, 100 complete control)
[18] = Preemergence, 62 g ai/ha, scale 0 to 100 (0 no effect, 100 complete control)
[19] = Preemergence, 125 g ai/ha, scale 0 to 100 (0 no effect, 100 complete control)
[20] = Preemergence, 250 g ai/ha, scale 0 to 100, 0 no effect, 100 complete control

SMILES: Cc1ccc2ccccc2c1-c1c(O)c(Br)nn(C)c1=O [Compound 23]
- Plant response rating, Mustard, Wild [1, 14]: 100
- Plant response rating, Mustard, Wild [1, 15]: 100
- Plant response rating, Mustard, Wild [1, 16]: 95
- Plant response rating, Speedwell [2, 14]: 75
- Plant response rating, Speedwell [2, 15]: 95
- Plant response rating, Speedwell [2, 16]: 100
- Plant response rating, Wheat, Spring [3, 14]: 60
- Plant response rating, Wheat, Spring [3, 15]: 60
- Plant response rating, Wheat, Spring [3, 16]: 50
- Plant response rating, Field Poppy [4, 14]: 100
- Plant response rating, Field Poppy [4, 15]: 100
- Plant response rating, Field Poppy [4, 16]: 100
- Plant response rating, Barley, Spring [5, 14]: 25
- Plant response rating, Barley, Spring [5, 15]: 30
- Plant response rating, Barley, Spring [5, 16]: 15
- Plant response rating, Kochia [6, 14]: 75
- Plant response rating, Kochia [6, 15]: 80
- Plant response rating, Kochia [6, 16]: 75
- Plant response rating, Bluegrass [7, 14]: 35
- Plant response rating, Bluegrass [7, 15]: 40
- Plant response rating, Bluegrass [7, 16]: 35
- Plant response rating, Oat, Wild [8, 14]: 95
- Plant response rating, Oat, Wild [8, 15]: 95
- Plant response rating, Oat, Wild [8, 16]: 75
- Plant response rating, Radish, Wild [9, 14]: 100
- Plant response rating, Radish, Wild [9, 15]: 100
- Plant response rating, Radish, Wild [9, 16]: 75
- Plant response rating, Pigweed [10, 14]: 85
- Plant response rating, Pigweed [10, 15]: 100
- Plant response rating, Pigweed [10, 16]: 75
- Plant response rating, Blackgrass [11, 14]: 75
- Plant response rating, Blackgrass [11, 15]: 80
- Plant response rating, Blackgrass [11, 16]: 70
- Plant response rating, Russian Thistle [12, 14]: 75
- Plant response rating, Russian Thistle [12, 15]: 80
- Plant response rating, Russian Thistle [12, 16]: 75
- Plant response rating, Barley, Winter [13, 14]: 25
- Plant response rating, Barley, Winter [13, 15]: 30
- Plant response rating, Barley, Winter [13, 16]: 15

SMILES: Cc1cc2ccccc2c(-c2c(O)c(C)nn(C)c2=O)c1C [Compound 34]
- Mustard, Wild plant response rating [1, 17]: 80
- Plant response rating, Mustard, Wild [1, 14]: 100
- Plant response rating, Mustard, Wild [1, 15]: 100
- Plant response rating (scale of 0 to 100), Mustard, Wild ([1]; Preemergence, 31 g ai/ha): 15
- Plant response rating, Mustard, Wild [1, 18]: 25
- Plant response rating, Mustard, Wild [1, 19]: 75
- Plant response rating, Mustard, Wild [1, 20]: 100
- Plant response rating, Mustard, Wild [1, 16]: 85
- Speedwell plant response rating [2, 17]: 65
- Plant response rating, Speedwell [2, 14]: 100
- Plant response rating, Speedwell [2, 15]: 100
- Plant response rating (scale of 0 to 100), Speedwell ([2]; Preemergence, 31 g ai/ha): 100
- Plant response rating, Speedwell [2, 18]: 100
- Plant response rating, Speedwell [2, 19]: 100
- Plant response rating, Speedwell [2, 20]: 100
- Plant response rating, Speedwell [2, 16]: 75
- Wheat, Spring plant response rating [3, 17]: 0
- Plant response rating, Wheat, Spring [3, 14]: 15
- Plant response rating, Wheat, Spring [3, 15]: 45
- Plant response rating (scale of 0 to 100), Wheat, Spring ([3]; Preemergence, 31 g ai/ha): 0
- Plant response rating, Wheat, Spring [3, 18]: 0
- Plant response rating, Wheat, Spring [3, 19]: 25
- Plant response rating, Wheat, Spring [3, 20]: 60
- Plant response rating, Wheat, Spring [3, 16]: 10
- Field Poppy plant response rating [4, 17]: 100
- Plant response rating, Field Poppy [4, 14]: 100
- Plant response rating, Field Poppy [4, 15]: 100
- Plant response rating, Field Poppy [4, 18]: 100
- Plant response rating, Field Poppy [4, 19]: 100
- Plant response rating, Field Poppy [4, 20]: 100
- Plant response rating, Field Poppy [4, 16]: 100
- Plant response rating, Barley, Spring [5, 17]: 0
- Plant response rating, Barley, Spring [5, 14]: 0
- Plant response rating, Barley, Spring [5, 15]: 5
- Plant response rating (scale of 0 to 100), Barley, Spring ([5]; Preemergence, 31 g ai/ha): 0
- Plant response rating, Barley, Spring [5, 18]: 0
- Plant response rating, Barley, Spring [5, 19]: 0
- Barley, Spring plant response rating [5, 20]: 20
- Plant response rating, Barley, Spring [5, 16]: 0
- Kochia plant response rating [6, 17]: 60
- Plant response rating, Kochia [6, 14]: 85
- Plant response rating, Kochia [6, 15]: 95
- Plant response rating (scale of 0 to 100), Kochia ([6]; Preemergence, 31 g ai/ha): 25
- Plant response rating, Kochia [6, 18]: 10
- Plant response rating, Kochia [6, 19]: 15
- Plant response rating, Kochia [6, 20]: 50
- Plant response rating, Kochia [6, 16]: 85
- Bluegrass plant response rating [7, 17]: 10
- Plant response rating, Bluegrass [7, 14]: 15
- Plant response rating, Bluegrass [7, 15]: 20
- Plant response rating (scale of 0 to 100), Bluegrass ([7]; Preemergence, 31 g ai/ha): 0
- Plant response rating, Bluegrass [7, 18]: 25
- Plant response rating, Bluegrass [7, 19]: 50
- Bluegrass plant response rating [7, 20]: 60
- Plant response rating, Bluegrass [7, 16]: 15
- Oat, Wild plant response rating [8, 17]: 75
- Plant response rating, Oat, Wild [8, 14]: 95
- Plant response rating, Oat, Wild [8, 15]: 95
- Plant response rating (scale of 0 to 100), Oat, Wild ([8]; Preemergence, 31 g ai/ha): 70
- Plant response rating, Oat, Wild [8, 18]: 75
- Plant response rating, Oat, Wild [8, 19]: 85
- Plant response rating, Oat, Wild [8, 20]: 90
- Plant response rating, Oat, Wild [8, 16]: 85
- Radish, Wild plant response rating [9, 17]: 65
- Plant response rating, Radish, Wild [9, 14]: 90
- Plant response rating, Radish, Wild [9, 15]: 95
- Plant response rating (scale of 0 to 100), Radish, Wild ([9]; Preemergence, 31 g ai/ha): 0
- Plant response rating, Radish, Wild [9, 18]: 0
- Plant response rating, Radish, Wild [9, 19]: 60
- Plant response rating, Radish, Wild [9, 20]: 60
- Plant response rating, Radish, Wild [9, 16]: 85
- Pigweed plant response rating [10, 17]: 100
- Plant response rating, Pigweed [10, 14]: 100
- Plant response rating, Pigweed [10, 15]: 100
- Plant response rating (scale of 0 to 100), Pigweed ([10]; Preemergence, 31 g ai/ha): 50
- Plant response rating, Pigweed [10, 18]: 95
- Plant response rating, Pigweed [10, 19]: 100
- Plant response rating, Pigweed [10, 20]: 100
- Plant response rating, Pigweed [10, 16]: 100
- Blackgrass plant response rating [11, 17]: 25
- Plant response rating, Blackgrass [11, 14]: 70
- Plant response rating, Blackgrass [11, 15]: 75
- Plant response rating (scale of 0 to 100), Blackgrass ([11]; Preemergence, 31 g ai/ha): 15
- Plant response rating, Blackgrass [11, 18]: 20
- Plant response rating, Blackgrass [11, 19]: 40
- Blackgrass plant response rating [11, 20]: 65
- Plant response rating, Blackgrass [11, 16]: 40
- Russian Thistle plant response rating [12, 17]: 70
- Plant response rating, Russian Thistle [12, 14]: 80
- Plant response rating, Russian Thistle [12, 15]: 85
- Plant response rating (scale of 0 to 100), Russian Thistle ([12]; Preemergence, 31 g ai/ha): 0
- Plant response rating, Russian Thistle [12, 18]: 0
- Plant response rating, Russian Thistle [12, 19]: 10
- Plant response rating, Russian Thistle [12, 20]: 15
- Plant response rating, Russian Thistle [12, 16]: 80
- Plant response rating, Barley, Winter [13, 17]: 0
- Plant response rating, Barley, Winter [13, 14]: 0
- Plant response rating, Barley, Winter [13, 15]: 20
- Plant response rating (scale of 0 to 100), Barley, Winter ([13]; Preemergence, 31 g ai/ha): 0
- Plant response rating, Barley, Winter [13, 18]: 0
- Plant response rating, Barley, Winter [13, 19]: 0
- Barley, Winter plant response rating [13, 20]: 65
- Plant response rating, Barley, Winter [13, 16]: 0
